Test [1] relates to IL6 secretion by TMD8 ABC-DLBCL cells. The experiment in a line: Human IL6 Mesoscale assay (TMD-8). The format is cell-based. The conditions noted are these: Homo sapiens, TMD8; TMD-8 cells, 24 h. The method in brief: (§1)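 100,000 cells/well treated with compound in 9 twofold steps from 15 μM to 58.6 nM (0.3% DMSO) for 24 h at 37° C; supernatant cytokine measured by MSD electrochemiluminescence sandwich immunoassay. DMSO wells set maximum signal, BTK inhibitor RN486 (30 nM to 131 pM) set maximum inhibition.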

Test [2] addresses full-length MALT1 protein (Strep-MALT1(1-824)-His) (Homo sapiens (Human), UniProt Q9UDY8). The experiment in a line: MALT1 Biochemical Protease Assay (Ac-LRSR-AMC substrate). The conditions noted are these: 10 nM FL MALT1, 200 μM Ac-LRSR-AMC, 4 h at RT; read-out: MALT1_Biochemical activity (Ac-LRSR-amc) IC50. In short, it runs like this: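 Full-length MALT1 pre-incubated with compounds (30 μM to 0.5 nM, 11 threefold steps) for 50 min at RT. After Ac-LRSR-AMC was added, the reaction ran 4 h at RT and AMC fluorescence was read. IC50 and Hill slope from curve fitting against no-enzyme and no-compound controls.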

Test [3] relates to IL10 secretion by TMD8 ABC-DLBCL cells. Nature of the test: Human IL10 Mesoscale assay (TMD-8). Type of test: cell-based. The conditions noted are these: Homo sapiens, TMD8; TMD-8 cells, 24 h. In short, it runs like this: as §1
The test system of another test is TMD8 cells. Nature of the test: 4-day proliferation assay, TMD8. The conditions noted are these: Homo sapiens, 96 h, 4 days incubation, CellTiterGLO, read-out: Anti-proliferation: TMD-8 IC50. Type of test: cell-based. As to the method:
(§2) To assess anti-proliferative effects, MALT1 inhibitor test compounds were tested in 4-day proliferation assays using three different DLBCL cell lines.
(§3) Cells should be kept between 0.5-2.5 million cells per mL during culturing and cells should be supplemented every 2-3 days with fresh 50 μM beta-mercaptoenthanol. No beta-mercaptoethanol is used during the proliferation assay. OCI-Ly7 cells were propagated in IMDM (ThermoFisher) supplemented with 10% fetal bovine serum (HyClone), 2 mM L-glutamine (Sigma Aldrich) and 50 μg/mL Gentamycin. Cell passage numbers should not exceed 30 (for OCI-Ly3 cells with passage number lower than 10 were used).
(§4) 10,000 TMD8, 10,000 OCI-Ly3 or 2,000 OCI-Ly7 cells were seeded in 100 μL media per well and incubated for 4 days at 37° C. and 5% CO2. Cell plating numbers were chosen based on growth curves to ensure linear cell growth. After 4 days of incubation 50 μL CellTiterGLO reagent (Promega) were added to each well and luminescence was measured on the Envision after 10 min of incubation at room temperature.
(§5) LC=median of the low control values
(§6) An estimate of the slope of the plot in terms of the Hill coefficient was also obtained.

The subject of another test is OCI-Ly3 cells. The experiment in a line: 4-day proliferation assay, OCI-Ly3. The format is cell-based, human. The conditions noted are these: Homo sapiens, 96 h, 4 days incubation, CellTiterGLO, read-out: Anti-proliferation: OCI-LY-3 IC50. How it is done:
as §2, §3, §4, §5, §6
(In general: Cellular ATP, detected with luciferase, serves as a proxy for viable cell number.)

Sequence of full-length MALT1 protein (Strep-MALT1(1-824)-His) (Q9UDY8 whole entry): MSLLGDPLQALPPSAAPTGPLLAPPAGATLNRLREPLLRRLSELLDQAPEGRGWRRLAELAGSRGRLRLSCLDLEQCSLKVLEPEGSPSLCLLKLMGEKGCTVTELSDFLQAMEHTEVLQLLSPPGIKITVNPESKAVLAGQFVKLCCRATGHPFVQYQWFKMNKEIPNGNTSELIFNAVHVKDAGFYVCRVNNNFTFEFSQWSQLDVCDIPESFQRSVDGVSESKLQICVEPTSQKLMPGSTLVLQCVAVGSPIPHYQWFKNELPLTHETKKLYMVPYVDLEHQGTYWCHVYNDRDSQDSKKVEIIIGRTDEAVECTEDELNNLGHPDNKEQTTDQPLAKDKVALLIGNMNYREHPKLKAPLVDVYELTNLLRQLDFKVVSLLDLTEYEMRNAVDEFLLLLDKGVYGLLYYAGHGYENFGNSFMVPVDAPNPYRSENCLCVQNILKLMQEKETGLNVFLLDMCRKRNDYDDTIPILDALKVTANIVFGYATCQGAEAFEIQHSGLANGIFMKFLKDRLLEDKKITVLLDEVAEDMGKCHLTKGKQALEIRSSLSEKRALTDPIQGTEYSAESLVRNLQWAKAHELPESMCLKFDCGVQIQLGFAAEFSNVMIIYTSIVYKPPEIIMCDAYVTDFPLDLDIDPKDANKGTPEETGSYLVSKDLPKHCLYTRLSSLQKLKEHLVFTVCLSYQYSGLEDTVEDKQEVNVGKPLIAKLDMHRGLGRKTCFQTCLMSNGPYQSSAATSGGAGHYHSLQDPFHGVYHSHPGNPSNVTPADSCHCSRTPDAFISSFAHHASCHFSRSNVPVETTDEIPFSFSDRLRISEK

On to `N#Cc1cc(NC(=O)c2cnn(-c3cncc4ccccc34)c2C(F)(F)F)ccc1-n1ccnn1` [Cpd 62, N-(3-cyano-4-(1H-1,2,3-triazol-1-yl)phenyl)-1-(isoquinolin-4-yl)-5-(trifluoromethyl)-1H-pyrazole-4-carboxamide], for which the IC50 in test [1] is 112 nM; in test [2], 59 nM; in test [3], 85 nM; in the test on TMD8 cells, 10000 nM; in the test with OCI-Ly3 cells it was 230 nM.
Taken in the same sequence, the figures for `Cc1cnc2cccc(-n3ncc(C(=O)Nc4cnc(-n5nccn5)c(Cl)c4)c3C(F)(F)F)c2c1` [Cpd 65, N-(5-Chloro-6-(2H-1,2,3-triazol-2-yl)pyridin-3-yl)-1-(3-methylquinolin-5-yl)-5-(trifluoromethyl)-1H-pyrazole-4-carboxamide] were 282 nM, 60 nM, 120 nM, 10200 nM and 260 nM.
Taken in the same sequence, the figures for `Cc1ncc(-n2ncc(C(=O)Nc3cnc(-n4nccn4)c(Cl)c3)c2C(F)(F)F)c2ccccc12` [Cpd 66, N-(5-chloro-6-(2H-1,2,3-triazol-2-yl)pyridin-3-yl)-1-(1-methylisoquinolin-4-yl)-5-(trifluoromethyl)-1H-pyrazole-4-carboxamide] were 331 nM, 69 nM, 132 nM, around 8710 nM and 810 nM.
`O=C(Nc1cnc(-n2nccn2)c(Cl)c1)c1cnn(-c2cccc3[nH]ncc23)c1C(F)(F)F` [Cpd 68, N-(5-Chloro-6-(2H-1,2,3-triazol-2-yl)pyridin-3-yl)-1-(1H-indazol-4-yl)-5-(trifluoromethyl)-1H-pyrazole-4-carboxamide]: the IC50 was 417 nM in test [1]; 151 nM in test [2]; 257 nM in test [3]; around 19000 nM in the test on TMD8 cells; 370 nM in the test with OCI-Ly3 cells.
On to `O=C(Nc1cnc(-c2nnco2)c(Cl)c1)c1cnn(-c2cncc3ccccc23)c1C(F)(F)F` [Cpd 69, N-(5-Chloro-6-(1,3,4-oxadiazol-2-yl)pyridin-3-yl)-1-(isoquinolin-4-yl)-5-(trifluoromethyl)-1H-pyrazole-4-carboxamide], for which the IC50 in test [1] was 58 nM; in test [2], 60 nM; in test [3], 63 nM; with TMD8 cells it was around 16200 nM; with OCI-Ly3 cells, 430 nM.
Taken in the same sequence, the figures for `O=C(Nc1cnc(-n2ccnc2)c(Cl)c1)c1cnn(-c2cncc3ccccc23)c1C(F)(F)F` [Cpd 70, N-(5-chloro-6-(1H-imidazol-1-yl)pyridin-3-yl)-1-(isoquinolin-4-yl)-5-(trifluoromethyl)-1H-pyrazole-4-carboxamide] were 1100 nM, 479 nM, 891 nM, around 13800 nM and around 1350 nM.
For `NCCCCNC(=O)c1ncc(NC(=O)c2cnn(-c3cncc4ccccc34)c2C(F)(F)F)cc1Cl` [Cpd 72, N-(4-aminobutyl)-3-chloro-5-(1-(isoquinolin-4-yl)-5-(trifluoromethyl)-1H-pyrazole-4-carboxamido)picolinamide] the same measures were 851 nM, 407 nM, 1380 nM, above 20000 nM and 1660 nM.
For `Cc1cc(NC(=O)c2cnn(-c3cncc4ccccc34)c2C(F)(F)F)cc(C(F)(F)F)n1` [Cpd 73, 1-(isoquinolin-4-yl)-N-(2-methyl-6-(trifluoromethyl)pyridin-4-yl)-5-(trifluoromethyl)-1H-pyrazole-4-carboxamide] the same measures were 417 nM, 724 nM, 339 nM, around 11500 nM and 1950 nM.
Take `COC(=O)c1cc(NC(=O)c2cnn(-c3cncc4ccccc34)c2C(F)(F)F)cc(Cl)n1` [Cpd 74, Methyl 6-chloro-4-(1-(isoquinolin-4-yl)-5-(trifluoromethyl)-1H-pyrazole-4-carboxamido)picolinate]: the IC50 in test [1] was 1380 nM; in test [2] it was 372 nM; in test [3], 1380 nM; in the test with TMD8 cells it was above 20000 nM; in the test on OCI-Ly3 cells, 2450 nM.
As for `Cn1ccc(-c2ncc(NC(=O)c3cnn(-c4cncc5ccccc45)c3C(F)(F)F)cc2C#N)n1` [Cpd 78, N-(5-cyano-6-(1-methyl-1H-pyrazol-3-yl)pyridin-3-yl)-1-(isoquinolin-4-yl)-5-(trifluoromethyl)-1H-pyrazole-4-carboxamide], the IC50 is 81 nM in test [1]; 55 nM in test [2]; 112 nM in test [3]; 7590 nM with TMD8 cells; around 490 nM in the test with OCI-Ly3 cells.
For `O=C(Nc1cnc(OC2CC2)c(Cl)c1)c1cnn(-c2cccc3ncccc23)c1C(F)(F)F` [Cpd 79, N-(5-Chloro-6-cyclopropoxypyridin-3-yl)-1-(quinolin-5-yl)-5-(trifluoromethyl)-1H-pyrazole-4-carboxamide] the same measures were around 340 nM, 98 nM, 251 nM, 8320 nM and around 2340 nM.
For `CCOc1ncc(NC(=O)c2cnn(-c3cccc4ncccc34)c2C(F)(F)F)cc1C#N` [Cpd 81, N-(5-cyano-6-ethoxypyridin-3-yl)-1-(quinolin-5-yl)-5-(trifluoromethyl)-1H-pyrazole-4-carboxamide] the same measures were 135 nM, 123 nM, 138 nM, 11500 nM and around 1350 nM.
For `N#Cc1cncc(NC(=O)c2cnn(-c3cncc4ccccc34)c2C(F)(F)F)c1` [Cpd 82, N-(5-cyanopyridin-3-yl)-1-(isoquinolin-4-yl)-5-(trifluoromethyl)-1H-pyrazole-4-carboxamide] the same measures were 240 nM, 676 nM, 295 nM, 6310 nM and around 1580 nM.
Regarding `N#Cc1cc(NC(=O)c2cnn(-c3cccc4ncccc34)c2C(F)(F)F)cnc1-n1nccn1` [Cpd 83, N-(5-cyano-6-(2H-1,2,3-triazol-2-yl)pyridin-3-yl)-1-(quinolin-5-yl)-5-(trifluoromethyl)-1H-pyrazole-4-carboxamide], the IC50 was 32 nM in test [1]; 34 nM in test [2]; 43 nM in test [3]; around 8320 nM in the test on TMD8 cells; 510 nM in the test with OCI-Ly3 cells.
Taken in the same sequence, the figures for `N#Cc1cc(NC(=O)c2cnn(-c3cncc4ccccc34)c2C(F)(F)F)cnc1OCCCCN` [Cpd 84, N-(6-(4-aminobutoxy)-5-cyanopyridin-3-yl)-1-(isoquinolin-4-yl)-5-(trifluoromethyl)-1H-pyrazole-4-carboxamide] were 148 nM, 214 nM, 355 nM, above 20000 nM and 1700 nM.
`COc1ncc(NC(=O)c2cnn(-c3cccc4ncccc34)c2C(F)(F)F)cc1C#N` [Cpd 85, N-(5-cyano-6-methoxypyridin-3-yl)-1-(quinolin-5-yl)-5-(trifluoromethyl)-1H-pyrazole-4-carboxamide]: the IC50 in test [1] is 95 nM; in test [2], 132 nM; in test [3], 120 nM; in the test on TMD8 cells, above 20000 nM; with OCI-Ly3 cells, 1660 nM.
Taken in the same sequence, the figures for `N#Cc1cc(NC(=O)c2cnn(-c3cccc4ncccc34)c2C(F)(F)F)cnc1-n1cncn1` [Cpd 86, N-(5-cyano-6-(1H-1,2,4-triazol-1-yl)pyridin-3-yl)-1-(quinolin-5-yl)-5-(trifluoromethyl)-1H-pyrazole-4-carboxamide] were 37 nM, 71 nM, 148 nM, around 11200 nM and 780 nM.
As for `O=C1COc2c(Cl)cc(NC(=O)c3cnn(-c4cncc5ccccc45)c3C(F)(F)F)cc2N1` [Cpd 87, N-(8-Chloro-3-oxo-3,4-dihydro-2H-benzo[b][1,4]oxazin-6-yl)-1-(isoquinolin-4-yl)-5-(trifluoromethyl)-1H-pyrazole-4-carboxamide], the IC50 in test [1] was 251 nM; in test [2], 141 nM; in test [3], 324 nM; in the test on TMD8 cells, around 13800 nM; with OCI-Ly3 cells, 1700 nM.

The record behind these values is patent US10954214B2 (Janssen Pharmaceutica NV, priority 2016, dated 2021).
